The term IC50 denotes the concentration at which inhibition is half-maximal.

The target of the test is JAK2 (Homo sapiens (Human), UniProt O60674). In words: JAK2 Tyrosine Kinase Assay. The format is biochemical. As to conditions: ATP 30 μM; JAK2 1 nM; 60 min at room temperature. How it is done:
JAK2 Tyrosine Kinase Assay
The assays were performed in V-bottom 384-well plates. […] The reaction was initiated by the combination of JAK2 with substrates and test compounds. The reaction was incubated at room temperature for 60 min. and terminated by adding 45 μl of 35 mM EDTA to each sample. The reaction mixture was analyzed on the Caliper LABCHIP® 3000 by electrophoretic separation of the fluorescent substrate and phosphorylated product. […] Compounds were dissolved at 10 mM in dimethylsulfoxide (DMSO) and evaluated at eleven concentrations, each in duplicate. IC50 values were derived by non-linear regression analysis

Counter-ions that a name gives are not always drawn.

JAK2, sequence (O60674 whole entry): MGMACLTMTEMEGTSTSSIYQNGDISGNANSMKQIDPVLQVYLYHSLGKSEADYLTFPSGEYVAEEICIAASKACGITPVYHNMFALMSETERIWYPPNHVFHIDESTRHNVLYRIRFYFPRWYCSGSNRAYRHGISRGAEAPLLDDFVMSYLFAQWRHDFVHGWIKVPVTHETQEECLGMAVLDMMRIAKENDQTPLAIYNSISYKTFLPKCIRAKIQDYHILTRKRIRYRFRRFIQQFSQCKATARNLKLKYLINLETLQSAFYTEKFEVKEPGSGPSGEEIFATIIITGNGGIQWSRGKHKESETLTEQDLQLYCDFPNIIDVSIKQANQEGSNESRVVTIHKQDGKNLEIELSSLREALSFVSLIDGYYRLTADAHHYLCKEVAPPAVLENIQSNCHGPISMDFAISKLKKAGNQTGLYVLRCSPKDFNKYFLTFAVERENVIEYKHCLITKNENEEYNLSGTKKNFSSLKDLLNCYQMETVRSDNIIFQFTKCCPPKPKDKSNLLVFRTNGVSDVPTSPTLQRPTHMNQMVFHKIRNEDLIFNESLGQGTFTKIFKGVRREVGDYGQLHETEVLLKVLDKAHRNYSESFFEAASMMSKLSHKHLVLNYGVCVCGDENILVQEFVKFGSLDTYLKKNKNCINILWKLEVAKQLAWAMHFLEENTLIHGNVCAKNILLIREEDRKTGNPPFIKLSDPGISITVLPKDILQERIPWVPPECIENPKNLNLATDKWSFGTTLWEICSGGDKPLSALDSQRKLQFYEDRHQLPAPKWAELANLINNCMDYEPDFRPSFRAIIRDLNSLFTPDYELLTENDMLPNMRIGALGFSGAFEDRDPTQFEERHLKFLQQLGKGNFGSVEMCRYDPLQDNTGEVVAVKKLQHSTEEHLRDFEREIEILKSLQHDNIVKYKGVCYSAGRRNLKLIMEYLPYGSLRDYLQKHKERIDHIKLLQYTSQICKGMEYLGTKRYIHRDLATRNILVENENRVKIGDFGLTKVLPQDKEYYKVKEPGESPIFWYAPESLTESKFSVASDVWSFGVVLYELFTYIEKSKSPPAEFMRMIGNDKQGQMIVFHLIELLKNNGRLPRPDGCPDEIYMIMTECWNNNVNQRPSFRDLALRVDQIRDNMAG

In the case of `Cc1ccc(-c2cc(C(N)=O)c3[nH]c4ccc(C(=O)O)cc4c3c2)c(F)c1` [Example 424, 8-Carbamoyl-6-(2-fluoro-4-methylphenyl)-9H-carbazole-3-carboxylic acid], the IC50 was 1 nM. Regarding `NC(=O)c1cc(-c2cccc(C(F)(F)F)c2)nc2c1[nH]c1cc(N3CCNCC3)ccc12` [Example 316, 7-(Piperazin-1-yl)-2-(3-(trifluoromethyl)phenyl)-5H-pyrido[3,2-b]indole-4-carboxamide], the IC50 amounted to 6 nM. As for `NC(=O)c1cc(-c2ccc(OC3CCNCC3)c(Cl)c2)nc2c1[nH]c1cc(N3CCOCC3)ccc12` [Example 360, 2-(3-chloro-4-(piperidin-4-yloxy)phenyl)-7-morpholino-5H-pyrido[3,2-b]indole-4-carboxamide], the IC50 was found to be 7 nM.

Regarding `NC(=O)c1cc(-c2cnoc2)nc2c1[nH]c1cc(C(=O)N3CCOCC3)ccc12` [Example 462, 2-(isoxazol-4-yl)-7-(morpholine-4-carbonyl)-5H-pyrido[3,2-b]indole-4-carboxamide], the IC50 came out at 112 nM.

Turning to `NC(=O)c1cc(-c2ccc(CN3CCOCC3)c(Cl)c2)cc2c1[nH]c1cc(-c3ccc(N4CCOCC4)nc3)ccc12` [Example 482, 3-(3-Chloro-4-(morpholinomethyl)phenyl)-7-(6-morpholinopyridin-3-yl)-9H-carbazole-1-carboxamide], the IC50 came out at 917 nM. Regarding `COc1cccc(-c2cc(C(N)=O)c3[nH]c4cc(C(=O)N(C)CCS(C)(=O)=O)ccc4c3c2)c1` [Example 96, 3-(3-methoxyphenyl)-N^7-methyl-N^7-(2-(methylsulfonyl)ethyl)-9H-carbazole-1,7-dicarboxamide], the half-inhibitory concentration (IC50) was under 1 nM. Turning to `COc1ccc(-c2cc(C(N)=O)c3[nH]c4ccc(C(=O)N5CCC(O)CC5)cc4c3c2)cc1F` [Example 197, 3-(3-fluoro-4-methoxyphenyl)-6-(4-hydroxypiperidine-1-carbonyl)-9H-carbazole-1-carboxamide], the IC50 came to 1 nM.

As for `NC(=O)c1cc(-c2ccc(OCCN3CCOCC3)c(Cl)c2)nc2c1[nH]c1cc(N3CCOCC3)ccc12` [Example 353, 2-(3-Chloro-4-(2-morpholinoethoxy)phenyl)-7-morpholino-5H-pyrido[3 ,2-b]indole-4-carboxamide], the IC50 came to 1 nM. In the case of `COc1ccc(-c2cc(C(N)=O)c3[nH]c4nc(OC)ccc4c3n2)cc1` [Example 129, 7-Methoxy-2-(4-methoxyphenyl)-5H-pyrido[2′,3′:4,5]pyrrolo[2,3-b]pyridine-4-carboxamide], the half-maximal inhibitory concentration (IC50) stood at 110 nM. In the case of `NC(=O)c1nc(-c2ccccc2)cc2c1[nH]c1cc(C(=O)N3CCOCC3)ccc12` [Example 469, 7-(Morpholine-4-carbonyl)-3-phenyl-9H-pyrido[3,4-b]indole-1-carboxamide], the IC50 is 11 nM. Turning to `COc1cccc(-c2cc(C(N)=O)c3[nH]c4cccnc4c3c2)c1` [Example 204, 8-(3-Methoxyphenyl)-5H-pyrido[3,2-b]indole-6-carboxamide, HCl], the IC50 was found to be 29 nM. Under `COCCCN1CCN(C(=O)c2ccc3c(c2)[nH]c2c(C(N)=O)cc(-c4cccc(OC)c4)cc23)CC1` [Example 106, 3-(3-methoxyphenyl)-7-((4-(3-methoxypropyl)-1-piperazinyl)carbonyl)-9H-carbazole-1-carboxamide] stands under 1 nM. In the case of `CN(C)C(=O)c1ccc(-c2cc(C(N)=O)c3[nH]c4cc(C(=O)N5CCOCC5)ccc4c3c2)cc1` [Example 558, 3-(4-(dimethylcarbamoyl)phenyl)-7-(4-morpholinylcarbonyl)-9H-carbazole-1-carboxamide] it was 286 nM. Consider `COc1cccc(-c2cc(C(N)=O)c3[nH]c4cc(NC(=O)OCCN)ccc4c3c2)c1` [Example 132, 2-aminoethyl (8-carbamoyl-6-(3-methoxyphenyl)-9H-carbazol-2-yl)carbamate], for which the IC50 turned out to be 7 nM. In the case of `Cc1cccc(-c2cc(C(N)=O)c3[nH]c4cc(N5CCN(Cc6ccccc6)CC5)ccc4c3c2)c1` [Example 479, 7-(4-Benzylpiperazin-1-yl)-3-m-tolyl-9H-carbazole-1-carboxamide], the IC50 came to 123 nM.

In the case of `COc1ccc(-c2cc(C(N)=O)c3[nH]c4cc(C(=O)N5CCN(C)CC5)ccc4c3c2)cc1F` [Example 79, 3-(3-fluoro-4-methoxyphenyl)-7-((4-methyl-1-piperazinyl)carbonyl)-9H-carbazole-1-carboxamide], the IC50 was found to be 6 nM.

Take `CN1CCN(c2ccc(-c3cc(C(N)=O)c4[nH]c5cc(C(=O)N6CCOCC6)ccc5c4n3)cc2)CC1` [Example 468, 2-(4-(4-methylpiperazin-1-yl)phenyl)-7-(morpholine-4-carbonyl)-5H-pyrido[3,2-b]indole-4-carboxamide]: the IC50 worked out at 6 nM. Regarding `NC(=O)c1cc(-c2cccc(Cl)c2)cc2c1[nH]c1ccc(C(=O)N3CCOC(CO)C3)cc12` (stereo not drawn) [Example 185, 3-(3-chlorophenyl)-6-(2-(hydroxymethyl)morpholine-4-carbonyl)-9H-carbazole-1-carboxamide], the IC50 worked out at 1 nM. As for `COc1ccc(-c2cc(C(N)=O)c3[nH]c4cc(C(=O)O)ccc4c3c2)cc1F` [Example 395, 8-Carbamoyl-6-(3-fluoro-4-methoxyphenyl)-9H-carbazole-2-carboxylate], the IC50 is 111 nM. In the case of `NC(=O)c1cc(-c2ccc(CO)nc2)nc2c1[nH]c1cc(N3CCOCC3)ccc12` [Example 500, 2-(6-(hydroxymethyl)pyridin-3-yl)-7-morpholino-5H-pyrido[3,2-b]indole-4-carboxamide] it was 6 nM; in that of `CN1CCN(C(=O)c2ccc3c(c2)[nH]c2c(C(N)=O)cc(-c4ccc(Cl)c(Cl)c4)cc23)CC1` [Example 61, 3-(3,4-dichlorophenyl)-7-((4-methyl-1-piperazinyl)carbonyl)-9H-carbazole-1-carboxamide], 6 nM. Under `COc1ccc(-c2cc(C(N)=O)c3[nH]c4ccc(C(=O)N5CCOCC5)cc4c3c2)cc1OC` [Example 166, 3-(3,4-dimethoxyphenyl)-6-(4-morpholinylcarbonyl)-9H-carbazole-1-carboxamide] stands 6 nM; under `NC(=O)c1cc(-c2cnc(N3CCOCC3)nc2)cc2c1[nH]c1cc(C(=O)N3CCOCC3)ccc12` [Example 579, 7-(4-morpholinylcarbonyl)-3-(2-(4-morpholinyl)-5-pyrimidinyl)-9H-carbazole-1-carboxamide], 108 nM; under `NC(=O)c1cc(-c2cccc(Cl)c2)nc2c1[nH]c1ccc(CN3CCOCC3)cc12` [Example 257, 2-(3-Chlorophenyl)-8-(morpholinomethyl)-5H-pyrido[3,2-b]indole-4-carboxamide], 1 nM.

On to `NC(=O)c1cc(-c2ccc(Cl)c(Cl)c2)cc2c1[nH]c1ccc(C(=O)N[C@@H]3CCNC3)cc12` [Example 49, 3-(3,4-dichlorophenyl)-N^6-((3R)-3-pyrrolidinyl)-9H-carbazole-1,6-dicarboxamide], for which the IC50 was determined as 6 nM. Consider `CN(C)CCNC(=O)c1ccc2[nH]c3c(C(N)=O)cc(-c4ccc(Cl)c(Cl)c4)cc3c2c1` [Example 56, 3-(3,4-dichlorophenyl)-N^6-(2-(dimethylamino)ethyl)-9H-carbazole-1,6-dicarboxamide], for which the IC50 was 6 nM. Take `NC(=O)c1cc(-c2ccc(CN3CCOCC3)s2)nc2c1[nH]c1cc(N3CCOCC3=O)ccc12` [Example 324, 2-(5-(Morpholinomethyl)thiophen-2-yl)-7-(3-oxomorpholino)-5H-pyrido[3,2-b]indole-4-carboxamide]: the IC50 amounted to 1 nM. In the case of `Cn1ccc2cc(-c3cc(C(N)=O)c4[nH]c5cc(C(=O)N6CCOCC6)ccc5c4n3)ccc21` [Example 448, 2-(1-methyl-1H-indol-5-yl)-7-(morpholine-4-carbonyl)-5H-pyrido[3,2-b]indole-4-carboxamide], the IC50 amounted to 1 nM. `COC(=O)c1cccc2[nH]c3c(C(N)=O)cc(-c4cccc(OC)c4)cc3c12` [Example 143, Methyl 8-carbamoyl-6-(3-methoxyphenyl)-9H-carbazole-4-carboxylate]: the IC50 is 110 nM. `CN1CCN(C(=O)c2ccc3c(c2)[nH]c2c(C(N)=O)cc(-c4ccc(Cl)nc4)cc23)CC1` [Example 76, 3-(6-chloro-3-pyridinyl)-7-((4-methyl-1-piperazinyl)carbonyl)-9H-carbazole-1-carboxamide]: the IC50 stood at 7 nM.

Take `COc1ccc(-c2nc(C(N)=O)c3[nH]c4cc(OC)ccc4c3n2)cc1` [Example 210, 7-Methoxy-2-(4-methoxyphenyl)-5H-pyrimido[5,4-b]indole-4-carboxamide]: the IC50 was 170 nM.

Consider `COC(=O)c1ccc2c(c1)[nH]c1c(C(N)=O)cc(-c3cccc(OC)c3)cc12` [Example 142, Methyl 8-carbamoyl-6-(3-methoxyphenyl)-9H-carbazole-2-carboxylate], for which the IC50 was 310 nM.

As for `NC(=O)c1cc(-c2ccc(CN3CCOCC3)cc2)nc2c1[nH]c1cc(N3CCS(=O)(=O)CC3)ccc12` [Example 323, 7-(1,1-Dioxido-4-thiomorpholinyl)-2-(4-(4-morpholinylmethyl)phenyl)-5H-pyrido[3,2-b]indole-4-carboxamide], the IC50 was found to be 1 nM.

With `NC(=O)c1cc(N2CCOCC2)nc2c1[nH]c1cc(C(=O)N3CCOCC3)ccc12` [Example 403, 7-(morpholine-4-carbonyl)-2-morpholino-5H-pyrido[3,2-b]indole-4-carboxamide], the IC50 amounted to 142 nM. As for `COc1ccc(-c2cc(C(N)=O)c3[nH]c4cc(N5CCN(C)CC5)ccc4c3n2)cc1F` [Example 310, 2-(3-fluoro-4-methoxyphenyl)-7-(4-methylpiperazin-1-yl)-5H-pyrido[3,2-b]indole-4-carboxamide], the IC50 is 1 nM. For `NC(=O)c1cc(-c2ccc(Cl)c(Cl)c2)nc2c1[nH]c1cc(OCCN3CCOCC3)ccc12` [Example 245], the IC50 was determined as 7 nM.

The record behind these values is US8815840B2, “Carbazole and carboline kinase inhibitors” (Bristol-Myers Squibb Company, priority 2008, dated 2014).
